Measured values as given in patent publication US20220064127A1, “PLATELET AGGREGATION INHIBITOR, PREPARATION AND USES THEREOF” (SHENYANG HINEWY PHARMACEUTICAL TECHNOLOGY CO., LTD., priority 2020, published 2022).

Legend:
[1] = tested on: carotid artery thrombus induced by ferric chloride; experiment: Effect of intragastric administration on FeCl3-induced carotid arterial thrombosis in male SD rats; format: in vivo, male Sprague Dawley (SD) rats; settings: for Wet weight of thrombus: daily for one week, male SD rats, 20% FeCl3
Experimental: Example 63 Effect of Intragastric Administration of Compound LY-26y on Arterial Thrombosis in Male Sprague Dawley (SD) Rats
1. Experimental animals: 50 male SD rats, 260-320 g (n=10).
2. Main reagents: ferric chloride, urethane, 0.5% CMC-Na, 0.9% NaCl.
The 50 male SD rats were randomly and averagely divided into five groups, respectively model group, low-dose LY-26y group (5 mg/kg), medium-dose LY-26y group (10 mg/kg), high-dose LY-26y group (20 mg/kg) and positive control group (10 mg/kg ticagrelor). After experiencing one-week adaptation, the rats in the experimental groups were treated by intragastric administration of LY-26y by at 9 am every day, and the model group was treated with 0.5% CMC-Na solution. After continuously treated for one week, the rats were anesthetized by intraperitoneal injection of 20% urethane ([…]) 8 min after the last administration. Then the anesthetized rats were placed on an insulation plate (to maintain body temperature) in a supine position, and a straight incision was made on the midline of the neck to expose the right common carotid artery. A plastic film (1.5×1.0 cm^2) was placed under the artery to protect the surrounding tissues. The filter paper was cut into a size of 1.0×0.8 cm^2, soaked with a 20% FeCl3 solution and then used to coat the exposed artery for 30 min to induce […] thrombosis. After 2 h of the administration, a 1.5-cm […] carotid artery was collected and weighed, and then the blood vessel was cut to remove the thrombus therein to measure the weight of the blood vessel wall, where the weight difference was the weight of thrombus.

[2] = tested on: ADP-Induced Platelet Aggregation; experiment: Inhibition of ADP-induced platelet aggregation in rabbit platelet-rich plasma (microplate method); format: cell-based; settings: Oryctolagus cuniculus, Platelet; rabbit PRP, inducer ADP, absorbance 655 nm; read-out: IC50 (Mean ± SE), ADP-induced platelet aggregation
Experimental: Example 62 Investigation on Inhibition of ADP-Induced Platelet Aggregation in Rabbit
A blood sample was collected from ear vein of a healthy male rabbit, added with 3.8% sodium citrate for anticoagulation and then centrifuged at 800 r/min for 10 min to prepare platelet-rich plasma (PRP) and at 3,000 r/min for 10 min to prepare platelet-poor plasma (PPP). The investigation on the plasma should be performed within 0.5-3 h after the preparation.
2. Determination of Platelet Aggregation by Microplate Method
The drugs to be tested were weighed and added with an appropriate amount of DMSO to prepare a series of 10 mM stock solutions, which were respectively diluted to prepare 10× stock solutions with normal saline for further use.
Several wells of a microplate were selected as test wells, which were added with 135 μL of PRP and then respectively added with 15 μL of the 10× stock solutions. A well in which 135 μL of PRP and 15 μL of normal saline were added was used as the vehicle control, and a well in which 135 μL of PPP and 15 μL of normal saline were added was used as the blank control. Duplicate wells were set for each test well. The plate was shaken, incubated at 37° C. for 5 min, and then measured for A0 at 655 nm. Subsequently, the microplate was added with 15 μL of an inducer […] (ADP) working solution (25 μmol/L) in each well, incubated at 37° C. under shaking and measured at 655 nm for A1, where the incubation time was determined according to the time in the pre-experiment when the maximum aggregation appeared. The platelet aggregation rate (AR) and platelet aggregation inhibition rate (AIR) were calculated according to the following formulas:
AR=(1−ARtest sample/ARcontrol)

| SMILES | IC50 [2] | other results |
| --- | --- | --- |
| CCOC(=O)c1c(C)nc(-c2cccc(C#N)c2)n1OCc1ccc(C#N)cc1 [LY-26y, ethyl 1-[(4-cyanobenzyl)oxy]-2-(3-cyanophenyl)-4-methyl-1H-imidazole-5-carboxylate] | 4.237 ± 0.0156 µM | Wet weight of thrombus ([1]; 5 mg/kg intragastric): 6.38 ± 0.18 mg; Wet weight of thrombus ([1]; 10 mg/kg intragastric): 4.89 ± 0.33 mg; Wet weight of thrombus ([1]; 20 mg/kg intragastric): 4.39 ± 0.26 mg; Effect on weight of the FeCl3-induced arterial thrombus in rats ([1]; intragastric administration, in words): significantly reduced |
| CCCSc1nc(N[C@@H]2C[C@H]2c2ccc(F)c(F)c2)c2nnn([C@@H]3C[C@H](OCCO)[C@@H](O)[C@H]3O)c2n1 [Ticagrelor, reference compound] | 7.21 ± 0.251 µM | Wet weight of thrombus ([1]; 10 mg/kg intragastric): 5.01 ± 0.16 mg |
| CCOC(=O)c1c(C)nc(-c2cccc(-c3nnn[nH]3)c2)n1O [LY-13, ethyl 2-[3-(1H-tetrazol-5-yl)phenyl]-1-hydroxy-4-methyl-1H-imidazole-5-carboxylate] | 21.9 ± 0.865 µM | – |
| CCOC(=O)c1c(C)nc(-c2ccc(C#N)cc2)n1OC [LY-22, ethyl 4-methyl-2-(4-cyanophenyl)-1-methoxy-1H-imidazole-5-carboxylate] | 13.4 ± 1.03 µM | – |
| COn1c(-c2cccc(C#N)c2)nc(C)c1C(=O)NC(C)C [LY-28b, 4-methyl-2-(3-cyanophenyl)-1-methoxy-N-isopropyl-1H-imidazole-5-carboxamide] | 11.2 ± 0.966 µM | – |
| CCOC(=O)c1c(C)nc(-c2cccc(-c3noc(=O)[nH]3)c2)n1O [LY-15, ethyl 1-hydroxy-4-methyl-2-[3-(5-oxo-4,5-dihydro-1,2,4-oxadiazol-3-yl)phenyl]-1H-imidazole-5-carboxylate] | 22.1 ± 0.299 µM | – |
| CCOC(=O)c1c(C)nc(-c2ccccc2C#N)n1OC [LY-19, ethyl 4-methyl-2-(2-cyanophenyl)-1-methoxy-1H-imidazole-5-carboxylate] | 14.86 ± 0.0568 µM | – |
| CCOCCOn1c(-c2cccc(C#N)c2)nc(C)c1C(=O)OCC [LY-26e, ethyl 2-(3-cyanophenyl)-1-(2-ethoxyethoxy)-4-methyl-1H-imidazole-5-carboxylate] | 6.25 ± 0.21 µM | – |

Further lines, with some results ahead:

| IC50 [2] | SMILES | other results |
| --- | --- | --- |
| 6.196 ± 0.0526 µM | CCOC(=O)c1c(C)nc(-c2cccc(C#N)c2)n1OCc1ccncc1 [LY-26j, ethyl 2-(3-cyanophenyl)-4-methyl-1-(pyridin-4-methoxy)-1H-imidazole-5-carboxylate] | – |
| 5.88 ± 0.196 µM | CCOC(=O)c1c(C)nc(-c2cccc(C#N)c2)n1OCc1ccccc1F [LY-26l, ethyl 2-(3-cyanophenyl)-1-[(2-fluorobenzyl)oxy]-4-methyl-1H-imidazole-5-carboxylate] | – |
| 5.93 ± 0.265 µM | CCOC(=O)c1c(C)nc(-c2cccc(C#N)c2)n1OCc1ccccc1 [LY-26k, ethyl 1-(benzyloxy)-2-(3-cyanophenyl)-4-methyl-1H-imidazole-5-carboxylate] | – |
| 22.4 ± 1.36 µM | CCOC(=O)c1c(C)nc(-c2cccc(C#N)c2)n1OCc1cccc(F)c1 [LY-26m, ethyl 2-(3-cyanophenyl)-1-[(3-fluorobenzyl)oxy]-4-methyl-1H-imidazole-5-carboxylate] | – |
| 19.87 ± 0.126 µM | CCOC(=O)c1c(-c2ccccc2)nc(-c2cccc(C#N)c2)n1O [LY-16, ethyl 2-(3-cyanophenyl)-1-hydroxy-4-phenyl-1H-imidazole-5-carboxylate] | – |
| 7.865 ± 0.0365 µM | Cc1nc(-c2cccc(C#N)c2)n(O)c1C(=O)O [LY-11, 2-(3-cyanophenyl)-1-hydroxy-4-methyl-1H-imidazole-5-carboxylic acid] | – |
| 24.6 ± 0.895 µM | CCOC(=O)c1c(C)nc(-c2cccc(C#N)c2)n1OCc1ccc(Br)cc1 [LY-26r, ethyl 1-[(4-bromobenzyl)oxy]-2-(3-cyanophenyl)-4-methyl-1H-imidazole-5-carboxylate] | – |
| 6.83 ± 0.0856 µM | CCOC(=O)c1c(C)nc(-c2cccc(C#N)c2)n1OCc1ccc(OC)cc1 [LY-26t, ethyl 2-(3-cyanophenyl)-1-[(4-methoxybenzyl)oxy]-4-methyl-1H-imidazole-5-carboxylate] | – |
